Format in all cases: biochemical
Experiment [1] concerns the target T1, catalase (Bos taurus, UniProt P00432).
T1 sequence (P00432 2-527): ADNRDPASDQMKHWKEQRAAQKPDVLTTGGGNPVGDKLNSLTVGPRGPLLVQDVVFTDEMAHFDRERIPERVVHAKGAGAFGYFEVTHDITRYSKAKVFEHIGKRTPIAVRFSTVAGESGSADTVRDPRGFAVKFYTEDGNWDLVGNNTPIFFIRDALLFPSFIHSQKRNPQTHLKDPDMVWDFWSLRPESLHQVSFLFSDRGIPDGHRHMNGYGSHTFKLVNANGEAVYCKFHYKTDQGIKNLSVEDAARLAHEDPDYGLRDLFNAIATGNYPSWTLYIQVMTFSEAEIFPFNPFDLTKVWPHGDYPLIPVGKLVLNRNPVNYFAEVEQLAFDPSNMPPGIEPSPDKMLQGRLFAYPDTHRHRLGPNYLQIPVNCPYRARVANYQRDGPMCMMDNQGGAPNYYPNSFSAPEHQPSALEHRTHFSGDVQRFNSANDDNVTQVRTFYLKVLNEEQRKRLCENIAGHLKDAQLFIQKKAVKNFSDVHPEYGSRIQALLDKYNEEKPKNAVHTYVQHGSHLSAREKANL
Kind of experiment: amperometric H2S release from SO2.

The target of experiment [2] is T1, catalase. In words: amperometric H2S release from DTT by isolated catalase.
Experiment [3] addresses T1, catalase. Kind of experiment: amperometric. To be noted: read-out: % increase at 400 μM.

This note sets out measurements from article PMC5350573 (Redox Biology, 2017).

For the molecule `O=S=O` [SO2, sulfur dioxide], on catalase [1], the EC50 result is “~ between 300 μM and 1 mM”.
Regarding `O[C@H](CS)[C@H](O)CS` (racemic) [DTT, dithiothreitol], at catalase [2], the “amperometric H2S release from DTT by isolated catalase” value is “catalase concentration-dependent increase in H2S release (Fig. 7B) confirming that catalase reacts directly with DTT to generate H2S”.
As to `NC(=O)C1=CN([C@@H]2O[C@H](COP(=O)(O)OP(=O)(O)OC[C@H]3O[C@@H](n4cnc5c(N)ncnc54)[C@H](OP(=O)(O)O)[C@@H]3O)[C@@H](O)[C@H]2O)C=CC1` [NADPH], at catalase [3], the activation at 400 µM is approximately 50%.
